# Source: US9034303B2, “Neuroprotective and neuro-restorative iron chelators and monoamine oxidase inhibitors and uses thereof” (priority 2010, dated 2015)
# “Also recorded” adds a separate entry of the source. Where two headings read alike, the source gives them in different places. Marks after values point to notes of the source that are not given here.
# Tests used:
# [1] = Follow-up stability experiment at 37° C. in PBS; type: physicochemical
# Procedure: (§1) Using high pressure liquid chromatography (HPLC), the stability of each of the tested compounds was determined by following its respective chemical character over time in either phosphate buffered saline (PBS) and/or 0.85% saline solution (sodium chloride). In each case, 0.5 mM of the tested compound in PBS or saline solution was incubated at 25° C. or at 37° C. for 20 hours or, in some cases, up to two days (48 hours).
# In addition, in a follow-up experiment the instability of M30, and the stability of compounds 3, 7 and 8 was also confirmed at 37° C. in PBS, Table 2, below.
# [2] = molecular target: rat brain MAO-B (Rattus norvegicus (Rat), UniProt P19643); assay: In vitro inhibition of rat brain MAO-B (14C-PEA substrate); type: biochemical; conditions: for IC50: estimated from FIG. 2, rat brain MAO-B, read-out: MAO-B IC50
# Procedure: (§2) Rats are decapitated and the brains quickly taken into a weighted ice-cold sucrose buffer (0.32 M) and their weights determined. All subsequent procedures are performed at 0° C. The brains are homogenized in 0.32 M sucrose (one part tissue to 20 parts sucrose) in a Teflon glass homogenizer followed by the addition of sucrose buffer to a final concentration of 10% homogenate. The homogenates are centrifuged at 600 g for 15 min. The supernatant fractions are taken out and centrifuged at 4500 g for 30 min, the pellet diluted in 0.32 M sucrose buffer and kept frozen for later assaying of MAO.
# (§3) MAO-A and MAO-B activities are determined in rat brain homogenate in vitro following incubation with varying concentrations of the test compounds.
# The in vitro inhibitory activity of the compounds is tested against rat brain MAO-B. The test compounds are added to buffer containing 10^−7 M clorgylin and are incubated with the tissue homogenate for 30 or 60 min at 37° C. before addition of ^14C-PEA.
# (§4) The test compound was added to a suitable dilution of the enzyme preparation (70 μg protein for MAO-B and 150 μg MAO-A assay) in 0.1 M phosphate buffer (pH 7.4). The mixture was incubated together with […], a specific inhibitor of MAO-B (for determination of MAO-A) or 0.05 M clorgylin, a specific inhibitor of MAO-A (for determination of MAO-B). Incubation was carried for 0.5 or 1 h at 37° C. before addition of ^14C-5-hydroxytryptamine binoxalate (5-HT) (100 or 400 μM) for determination of MAO-A, or ^14C-phenylethylamine (^14C-PEA) 100 or 400 μM for determination of MAO-B, and incubation continued for 30 min or 20 min, respectively. The reaction was stopped with 2 M ice-cold citric acid, and the metabolites were extracted and determined by liquid-scintillation counting in cpm units.
# The reaction was stopped with 2 M ice-cold citric acid, and the metabolites were extracted with ethyl acetate and levels of radioactivity were determined by liquid-scintillation counting in CPM units. All assays were performed at least in duplicate and outcome was expressed as a mean±SEM. Data were analyzed by a Student's t test. Variations were considered statistically significant at a p value of 0.05.
# (§5) MAO-A and MAO-B activity was measured using radioactive substrates. The substrate for MAO-A was 5 HT and for MAO-B was PEA. When measuring the activity of MAO-A, the MAO-B activity was inhibited with deprenyl and when measuring the activity of MAO-B the activity of MAO-A was inhibited with clorgylin. Blank samples were produced using TCP to inhibit both of the enzymes. The metabolites were extracted to toluene and read in a β-counter. The results are expressed in relative activity and normalized to the amount of protein in the tissue.
# [3] = molecular target: rat brain MAO-A (Rattus norvegicus (Rat), UniProt P21396); assay: In vitro inhibition of rat brain MAO-A (14C-5-HT substrate); type: biochemical; conditions: for IC50: estimated from the data in FIG. 1, rat brain MAO-A, read-out: MAO-A IC50
# Procedure: as §2, with “MAO. Protein concentration is determined with Bradford reagent at λ=595 nm, using BSA as a standard.” for “MAO.”
# as §3
# as §4, with “The activity of MAO-A and MAO-B was determined by the adapted method of Tipton & Youdim (Tipton K F, O'Sullivan J, Youdim M B, 1983, Encyclopedia of Neuroscience, 2004, G. Adelman and B. H. Smith, Elsevier). The test” for “The test”, “cpm units. […]” for “cpm units.”
# as §5
# [4] = test system: HepG2 cells; assay: Cytotoxicity in presence and absence of exogenous iron, HepG2; type: cell-based, human; conditions: iron alone, 20 μM
# Procedure: (§6) The potential of compound 3 to be toxic in the presence of free iron was also tested. The iron complexation method was based on the method of Leanderson and Tagesson (Carcinogenesis, 17, 545-550, 1996) with some modifications. Iron (III) was prepared from ferric ammonium citrate (Sigma, F5879) at 80 mM in sterile distilled water. Compound 3 was prepared at a 200 mM concentration in DMSO. Before each experiment, the freshly prepared iron (III) solution was diluted to 0.4 mM in PBS II (PBS containing 0.90 mM Ca^2+ and 0.49 mM Mg^2+). Compound 3 stock solutions were diluted to 2, 0.2, and 0.02 mM with PBS II. Equal volumes of the 0.4 mM iron (III) solution and compound 3 solutions were added together to prepare iron/test article complex solutions containing 1, 0.1, and 0.01 mM compound 3 and 0.2 mM iron (III). The compound 3 DMSO stock solution was diluted in PBS II at 1, 0.1, or 0.01 mM and used as compound 3 control without iron. An equal volume of the 0.4 mM iron (III) solution was diluted in PBS II to prepare a control containing only iron.
# (§7) The medium was removed from the plated cells (both cell lines) and replaced with fresh medium (90 μL). Iron/compound 3 complex or compound 3 in PBS II without iron was added to cells in triplicate (10 μL) to final compound 3 concentrations of 100, 10, and 1 μM and an iron (III) concentration of 20 μM. Wells containing no cells were used as the background control. PBS II was run as vehicle control. Iron only was run at a final concentration of 20 μM.
# (§8) Cell viability was determined as described above and cytotoxicity was compared between treatments with and without iron complexation.
# [5] = test system: SHSY-5Y cells; assay: Cytotoxicity in presence and absence of exogenous iron, SH-SY5Y; type: cell-based, human; conditions: iron alone, 20 μM
# Procedure: as §6, §7, §8
# [6] = Stability in aqueous solution (PBS or saline) followed by HPLC; type: physicochemical; conditions: for Stability in aqueous solution (in words): PBS and/or saline solution; for Amount of compound remaining (%): 0.5 mM
# Procedure: as §1
# [7] = concentration 0.01 mM, rat brain extracts
# [8] = concentration 0.1 mM, rat brain extracts
# rat brain MAO-B, sequence (P19643 whole entry): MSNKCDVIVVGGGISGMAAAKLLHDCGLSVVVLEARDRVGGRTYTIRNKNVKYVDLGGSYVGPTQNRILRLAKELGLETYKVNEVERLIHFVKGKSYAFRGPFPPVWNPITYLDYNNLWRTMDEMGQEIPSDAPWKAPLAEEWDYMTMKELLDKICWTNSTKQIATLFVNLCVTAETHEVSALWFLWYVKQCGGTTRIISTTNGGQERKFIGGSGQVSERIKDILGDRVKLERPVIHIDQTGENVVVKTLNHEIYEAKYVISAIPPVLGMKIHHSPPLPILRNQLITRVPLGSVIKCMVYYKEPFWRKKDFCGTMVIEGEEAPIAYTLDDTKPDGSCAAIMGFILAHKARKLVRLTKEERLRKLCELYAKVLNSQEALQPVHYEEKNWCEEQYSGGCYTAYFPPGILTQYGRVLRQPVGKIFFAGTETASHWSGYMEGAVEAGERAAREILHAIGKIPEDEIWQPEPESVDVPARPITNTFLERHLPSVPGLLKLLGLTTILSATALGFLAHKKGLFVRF
# rat brain MAO-A, sequence (P21396 whole entry): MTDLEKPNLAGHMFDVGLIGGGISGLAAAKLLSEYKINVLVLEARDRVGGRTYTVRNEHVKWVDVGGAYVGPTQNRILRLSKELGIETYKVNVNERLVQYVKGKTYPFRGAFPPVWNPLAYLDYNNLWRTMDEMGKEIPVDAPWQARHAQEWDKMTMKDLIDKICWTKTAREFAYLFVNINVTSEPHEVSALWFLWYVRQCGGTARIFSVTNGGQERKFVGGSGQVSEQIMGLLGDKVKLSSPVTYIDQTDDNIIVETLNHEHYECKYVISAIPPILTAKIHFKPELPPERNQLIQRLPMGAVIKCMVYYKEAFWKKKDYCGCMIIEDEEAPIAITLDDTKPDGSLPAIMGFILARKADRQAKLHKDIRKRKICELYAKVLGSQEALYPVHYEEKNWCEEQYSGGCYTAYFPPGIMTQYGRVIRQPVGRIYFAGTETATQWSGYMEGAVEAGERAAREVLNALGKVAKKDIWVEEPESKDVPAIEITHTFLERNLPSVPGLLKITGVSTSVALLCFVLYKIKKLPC
smiles,measurement,setting,value
"C#CCN(C)CCc1cc(C2CC2)c(O)c2ncccc12 [Compound 7, 7-cyclopropyl-5-[2-(methyl-2-propyn-1-ylamino)ethyl]-8-quinolinol]",Amount of compound remaining (%),[1]; 3 hours,99.7%
same,Amount of compound remaining (%),[1]; 8 hours,97.7%
same,Amount of compound remaining (%),[1]; 24 hours,94.1%
same,Amount of compound remaining (%),[1]; 48 hours,100%
C#CCN(C)Cc1ccc(OC)c2ncccc12 [O-Methyl-M30],inhibition at 10 µM,[2]; [7],87.8%
same,inhibition at 100 µM,[2]; [8],97.3%
same,IC50,[2],20 to 40 nM
same,Inhibition of rat brain MAO-B in vitro (in words),[2],potent inhibitors
same,Inhibition of rat brain MAO-B in vitro (in words),[2]; listed as O-methyl M30,inhibits both brain MAO-A and MAO-B at apparently similar levels
same,inhibition at 10 µM,[3]; [7],98.5%
same,inhibition at 100 µM,[3]; [8],99.7%
same,IC50,[3],250 to 300 nM
same,Inhibition of rat brain MAO-A in vitro (in words),[3],potent inhibitors
same,Inhibition of rat brain MAO-A in vitro (in words),[3]; listed as O-methyl M30,inhibits both brain MAO-A and MAO-B at apparently similar levels
[Fe+3] [Iron],HepG2 cell death (%),[4],1.6%
same,SHSY-5Y cell death (%),[5],−1.0%
"C#CCN(C)CCc1ccc(OC)c2ncccc12 [[O-Methyl-Compound 3], 8-methoxy-N-methyl-N-2-propyn-1-yl-5-quinolineethanamine]",Stability in aqueous solution (in words),[6],highly stable chemically; also recorded: stable in PBS at 37 °C for at least two days
same,Amount of compound remaining (%),"[6]; PBS, 25° C., 0.5 hours",100%
same,Amount of compound remaining (%),"[6]; PBS, 25° C., 2 hours",100%
same,Amount of compound remaining (%),"[6]; PBS, 25° C., 20 hours",100%
same,Amount of compound remaining (%),"[6]; PBS, 25° C., 48 hours",100%
same,Amount of compound remaining (%),"[6]; saline, 37° C., 0.5 hours",100%
same,Amount of compound remaining (%),"[6]; saline, 37° C., 2 hours",100%
same,Amount of compound remaining (%),"[6]; saline, 37° C., 20 hours",100%
same,Amount of compound remaining (%),"[6]; saline, 37° C., 48 hours",100%
"C#CCN(C)CCCc1ccc(O)c2ncccc12 [Compound 4, 5-[3-(methyl-2-propyn-1-ylamino)propyl]-8-quinolinol]",IC50,[2],100 nM
same,Inhibition of rat brain MAO-B in vitro (in words),[2],potent inhibitors
same,Stability in aqueous solution (in words),[6],highly stable chemically
same,Amount of compound remaining (%),"[6]; PBS, 25° C., 0.5 hours",100%
same,Amount of compound remaining (%),"[6]; PBS, 25° C., 2 hours",100%
same,Amount of compound remaining (%),"[6]; PBS, 25° C., 20 hours",100%
same,Amount of compound remaining (%),"[6]; PBS, 25° C., 48 hours",100%
same,Amount of compound remaining (%),"[6]; saline, 25° C., 0.5 hours",100%
same,Amount of compound remaining (%),"[6]; saline, 25° C., 2 hours",100%
same,Amount of compound remaining (%),"[6]; saline, 25° C., 20 hours",100%
same,Amount of compound remaining (%),"[6]; saline, 25° C., 48 hours",100%
same,IC50,[3]; listed as compound 4,~200 nM
same,IC50,[3],200 nM
same,Inhibition of rat brain MAO-A in vitro (in words),[3],potent inhibitors
C#CCN(C)C(C)c1ccc(O)c2ncccc12 (stereo not shown) [5-(1-(methyl(prop-2-ynyl) amino)ethyl)quinolin-8-ol],Stability in aqueous solution (in words),[6],**Decomposition of 5-(1-(methyl(prop-2-ynyl) amino)ethyl)quinolin-8-ol occurred immediately upon dissolution in PBS aspredicted by the working hypothesis
C#CCN(C)C(C)c1ccc(O)c2ncccc12 (stereo not shown) [5-(1-(methyl(prop-2-ynyl)amino)ethyl)quinolin-8-ol] [5-[1-(methyl-2-propyn-1-ylamino)ethyl]-8-quinolinol],Stability in aqueous solution (in words),[6],decomposed immediately
same,Amount of compound remaining (%),"[6]; PBS, 25° C., 0.5 hours",0.0** %
"C#CCN(C)CCc1cc(F)c(O)c2ncccc12 [Compound 8, 7-fluoro-5-[2-(methyl-2-propyn-1-ylamino)ethyl]-8-quinolinol]",Amount of compound remaining (%),[1]; 3 hours,≧100%
same,Amount of compound remaining (%),[1]; 8 hours,96.7%
same,Amount of compound remaining (%),[1]; 24 hours,≧100%
same,Amount of compound remaining (%),[1]; 48 hours,≧100%
